According to patent US4540428A (priority 1983, dated 1985):

What was measured:
urease = details: stated as well known; cited from earlier work
soil urease [1] = assay: Urea hydrolyzed as a function of time in soil at 35° C. (procedure of Example VI, FIG. 1); assay type: biochemical; details: 10 micrograms of urease inhibitor per gram of soil; for urease inhibiting activity at 35° C. (in words): soil at 35° C. (95° F.), period of 12 days, sampled every two days
Description: The drawing is a graph of urea hydrolyzed as a function of time at 35° C. using 10 micrograms of urease inhibitor per gram of soil.
Certain compounds were evaluated to determine their effectiveness as urease inhibitors. The inhibition tests were run in a New York State soil (Cazenovia sandy loam, pH 7.2). Evaluations (run in triplicate) consisted of applying 800 micrograms of test compound in 5 mL of water and 42.8 mg urea in 1 mL of water to 20 g of air-dry soil in a glass bottle. The bottle was capped with perforated aluminum foil and incubated at 25° C. for 3 days prior to extraction with 100 mL of 2M KCl solution containing 0.5 mg of phenylmercuric acetate. The extracts were then analyzed for remaining urea using an autoanalyzer. Percent inhibition was calculated as [formula] where A is urea recovered from unincubated sample (urea added to soil and immediately extracted); B is urea recovered from inhibited sample; and C is urea recovered from the control (uninhibited sample).
Employing the procedure of Example VI, the urease inhibiting activity at 35° C. of the prior art urease inhibitor, phenyl phosphorodiamidate, and N-(2-chloroethyl)phosphoric triamide were evaluated. In the evaluation, soil samples were taken every two days and analyzed for urea content.

soil urease [2] = assay type: biochemical; details: for % Inhibition 40 microgram per gram soil: pH 7.2

Row | Structure (SMILES) | inhibitory effect on urease at 25° C. (in words) (urease) | urease inhibiting activity at 35° C. (in words) (soil urease [1]) | time to essentially complete urea hydrolysis (soil urease [1]; soil at 35° C.) | % Inhibition 1 microgram per gram soil (soil urease [2]) [%] | % Inhibition 40 microgram per gram soil (soil urease [2]) [%]
1 | NP(N)(=O)Oc1ccccc1 [phenyl phosphorodiamidate] | excellent inhibitory effect | much less effective | essentially complete urea hydrolysis after only six days | – | –
2 | NP(N)(=O)NCCCBr [Experiment 3] | – | – | – | 83 | 99
3 | NP(N)(=O)NCCCl [Experiment 1, N-2-Chloroethyl Phosphoric Triamide] | – | excellent inhibitor | – | – | –
4 | NP(N)(=O)NCCCl [Experiment 1] | – | – | – | 77 | 100
